From article PMC5956019, “A rapid solution-based method for determining the affinity of heroin hapten-induced antibodies to heroin, its metabolites, and other opioids” (Analytical and Bioanalytical Chemistry, 2018)
Like-named read-outs stand apart in the source and are kept apart here.

How the values were obtained:
6-AmHap-Abs [1] = assay type: binding, mouse; details: for Ki: read-out: Heterologous MST Ki; for IC50: read-out: Heterologous MST IC50
Experimental: The final concentrations of 6-AmHap-Abs, MorHap-Cy5 in the capillaries were 10 nM and 0.25 nM, respectively. The same procedure was performed for the binding of the 6-AmHap-Abs to the other drugs but different concentrations of competitor working solutions were used.
For the heroin-binding assay in the presence of esterase inhibitors, a working solution containing 6-AmHap antibody (40 nM) and 80 μM iso-OMPA/80 μM BNPP was incubated for 2 h at RT. An equal volume of MorHap-Cy5 (1 nM) was then mixed with the 6-AmHap-Abs/iso-OMPA/BNPP mixture and the reaction mixture was further incubated for 20 min in the dark at RT. The rest of the procedure was performed as described above. The final concentrations of 6-AmHap-Abs, iso-OMPA/BNPP, and MorHap-Cy5 in the capillaries were 10 nM, 20 μM/20 μM, and 0.25 nM, respectively.
(§1) The MST measurements were done on a Monolith™ NT.115^Pico instrument from NanoTemper Technologies GmbH. The instrument was equipped with an IR laser (wavelength, 1475 ± 15 nm; power, 120 mW maximum) and a red fluorescence channel that can detect red dyes, such as Cy5 and Alexa Fluor 647. The samples were measured at an LED power of 20% and an MST power of 25% with a laser-on time of 30 s and a laser-off time of 5 s. MST measurements of 15–16 samples typically take ~ 20 min.
In the competition MST procedures, a constant concentration of MorHap-Cy5:antibody complex was titrated with an increasing concentration of drug competitor. […] The software plots Fnorm against 15–16 increasing drug competitor concentration points to yield the binding curve, and subsequently fits the curve to obtain the IC50. For presentation purposes, the fraction bound was manually calculated and plotted using the equation above where x is the Fnorm at a given competitor concentration. The binding affinities (Ki) from the heterologous MST assays were then derived using the Ki-Finder software from the Nanotemper website. In order to calculate the Ki, the following parameters must be entered into the Ki-Finder website: the binding affinity of the tracer against the antibody (Kd), the concentration of the antibody (I0), the concentration of the tracer (labeled T0), the highest concentration of the competitor (L0), and the IC50 of the competitor to the antibody. The website then plots both the binding curve and competition curve to produce the competitor Ki, also known as the Kd of the antibody to the drug competitor.

6-AmHap-Abs [2] = assay type: binding, mouse; details: read-out: Competition ELISA Heterologous, IC50
6-AmHap-Abs [3] = details: ref Sulima et al [3]; read-out: Competition ELISA Homologous, IC50; cited from earlier work
[4] = degradation of heroin in humans, Fig. 1a; cited from earlier work
[5] = biological target: Anti-morphine antibody (ab1060); assay type: binding, mouse; details: 0.25 nM MorHap-Cy5, 10 nM ab1060, 4000 nM competitor
Experimental: as §1
In the competition MST procedures, a constant concentration of MorHap-Cy5:antibody complex was titrated with an increasing concentration of drug competitor. […] The software plots Fnorm against 15–16 increasing drug competitor concentration points to yield the binding curve, and subsequently fits the curve to obtain the IC50. For presentation purposes, the fraction bound was manually calculated and plotted using the equation above where x is the Fnorm at a given competitor concentration. The binding affinities (Ki) from the heterologous MST assays were then derived using the Ki-Finder software from the Nanotemper website. […]

6-AmHap-Abs [6] = assay type: binding, mouse; details: read-out: Kd of 6-AmHap-Abs derived from ED-UPLC/MS/MS; post-immune serum diluted 1:1600, 5 nM D3-tracer
Experimental: Post-immune sera (week 8) from the mouse study described by Sulima et al. [12] were used in this study. […] Briefly, post-immune serum was diluted in DPBS (1:1600). Dialysis buffer was prepared by diluting the corresponding pre-immune serum (week 0) in DPBS (1:1600). […] A 100-μL dilution of week 8 serum containing 5 nM D3-tracer was pipetted into the sample chamber, and a 300-μL aliquot of the competitive inhibitor solution was added to the buffer chamber. Both week 8 and week 0 were run against each other at the same sera dilutions. For negative controls, the same setup was employed except both sides of the dialysis chamber contained only week 0 serum. Equilibrium dialysis, preparation of samples for UPLC/MS/MS, and calculation of Kd were performed as described [13].
The antibody binding site concentration was derived from Müller’s equation [17] and was calculated using the following formula: Abt=bTt+b×Kd/1−b where [Abt] is the total concentration of the antibody binding sites, b is the fraction of bound D3-tracer in the absence of competitive inhibitor, [Tt] is the total molar concentration of the D3-tracer after equilibrium, and Kd is the apparent dissociation constant.

[7] = 0.25 nM MorHap-Cy5, 10 nM antibody binding sites, without esterase inhibitors, […]
[8] = 0.25 nM MorHap-Cy5, 10 nM antibody binding sites, without esterase inhibitors

Compound	Ki (6-AmHap-Abs [1]; [7])	IC50 (6-AmHap-Abs [1]; [8])	IC50 (6-AmHap-Abs [2])	IC50 (6-AmHap-Abs [3])	other results
C[N+]1([O-])CC[C@]23c4c5ccc(O)c4O[C@H]2[C@@H](O)C=C[C@H]3[C@H]1C5 (stereo partly drawn) [Morphine N-Oxide, morphine N-oxide]	6.46 ± 4.78 µM	12.651 ± 0.00133 µM	–	–	–
CN1CC[C@]23c4c5ccc(O[C@@H]6O[C@H](C(=O)O)[C@@H](O)[C@H](O)[C@H]6O)c4O[C@H]2[C@@H](O)C=C[C@H]3[C@H]1C5 [M-3G, morphine-3-β-glucuronide]	0.0279 ± 0.00414 µM	0.0691 ± 0.00124 µM	0.0232 ± 0.00733 µM	28 ± 11.4 µM	t1/2 [4]: 4.5 h
CN1CCCCC1 [N-Methylpiperidine, N-methylpiperidine]	–	–	–	–	Heterologous MST IC50 (6-AmHap-Abs [1]; [8]): No binding; Heterologous MST Ki (6-AmHap-Abs [1]; [7]): No binding; Heterologous MST Ki (6-AmHap-Abs [1]; 0.25 nM MorHap-Cy5, 10 nM antibody binding sites, without esterase inhibitors, […], listed as N-methylpiperidine): Neither acetanilide nor N-methylpiperidine bound
CN1CC[C@]23c4c5ccc(O)c4O[C@H]2[C@@H](O[C@@H]2O[C@H](C(=O)O)[C@@H](O)[C@H](O)[C@H]2O)C=C[C@H]3[C@H]1C5 [M-6G, morphine-6-β-glucuronide]	0.00066 ± 0.0009 µM	0.00588 ± 0.00122 µM	0.0113 ± 0.00216 µM	25 ± 12.1 µM	t1/2 [4]: 4.60 h
Oc1ccc2c3c1O[C@H]1[C@@H](O)C=C[C@H]4[C@@H](C2)NCC[C@@]341 [Normorphine, normorphine]	0.0551 ± 0.00758 µM	0.136 ± 0.00094 µM	3.22 ± 2 µM	112 ± 22.3 µM	–
COC1=CC=C2[C@H]3Cc4ccc(OC)c5c4[C@@]2(CCN3C)[C@H]1O5 [Thebaine, thebaine]	0.0131 ± 0.00547 µM	0.0356 ± 0.00091 µM	–	–	–
CN1CC[C@]23c4c5ccc(O)c4O[C@H]2[C@H](NC(=O)CCSCC(N)=O)C=C[C@H]3[C@H]1C5 [MorHap-acetamide]	–	–	–	–	Ki [5]: 0.014 ± 0.00797 µM
CC(=O)Nc1ccccc1 [Acetanilide, acetanilide]	–	–	–	–	Heterologous MST IC50 (6-AmHap-Abs [1]; [8]): No binding; Heterologous MST Ki (6-AmHap-Abs [1]; [7]): No binding; Heterologous MST Ki (6-AmHap-Abs [1]; 0.25 nM MorHap-Cy5, 10 nM antibody binding sites, without esterase inhibitors, […], listed as acetanilide): Neither acetanilide nor N-methylpiperidine bound
CN1CC[C@]23CCCC[C@H]2[C@H]1Cc1ccc(O)cc13 [Levorphanol, levorphanol]	0.0116 ± 0.00441 µM	0.0337 ± 0.00091 µM	0.341 ± 0.138 µM	3.39 ± 0.9 µM	–
CN1CC[C@]23c4c5ccc(O)c4O[C@H]2CCC[C@H]3[C@H]1C5 [Desomorphine, desomorphine]	–	–	–	–	IC50 (6-AmHap-Abs [1]): 0.00907 ± 0.00073 µM; Ki (6-AmHap-Abs [1]): 0.0009 ± 0.00064 µM
CN1CC[C@]23c4c5ccc(O)c4O[C@H]2C(=O)CC[C@@]3(O)[C@H]1C5 [Oxymorphone, oxymorphone]	0.251 ± 0.007 µM	0.5981 ± 0.00095 µM	2.43 ± 0.864 µM	125 ± 28.6 µM	–
6-acetylmorphine [6-AM]	0.00044 ± 0.00033 µM	0.00675 ± 0.00117 µM	0.0198 ± 0.00633 µM	3.72 ± 0.7 µM	Kd (6-AmHap-Abs [6]): 0.00053 ± 0.00028 µM; t1/2 [4]: 0.367 to 0.433 h
CN1CC[C@]23c4c5ccc(O)c4O[C@H]2[C@@H](O)C=C[C@H]3[C@H]1C5O (stereo partly drawn) [10-Hydroxymorphine, 10-hydroxymorphine]	0.0185 ± 0.00578 µM	0.0512 ± 0.00072 µM	–	–	–
C=CCN1CC[C@]23c4c5ccc(O)c4O[C@H]2[C@@H](O)C=C[C@H]3[C@H]1C5 [Nalorphine, nalorphine]	0.00293 ± 0.00098 µM	0.0106 ± 0.00089 µM	–	–	–
